Assay results: patent US20190247361A1, “OXYTOCIN ANTAGONIST DOSING REGIMENS FOR PROMOTING EMBRYO IMPLANTATION AND PREVENTING MISCARRIAGE” (ObsEva S.A., priority 2016, published 2019)

Tests used:
Type in all cases: in vitro ADME
[1] = system: cytochrome P450 in combination with UGT; test: microsomal stability, pooled liver microsomes, cytochrome P450 in combination with UGT; conditions: 45 minute experiment
Description: (§1) At five time points over the course of a 45 minute experiment, the compounds were analyzed by liquid chromatography and tandem mass spectrometry (LC-MS/MS). Intrinsic clearance values (CLint) with standard error (SE CLint) and metabolic half-life (t1/2) were calculated and are indicated in Table 9, below.

[2] = biological target: CYP2D6 (Homo sapiens, UniProt P10635); test: metabolism by CYP2D6 isoform; conditions: for Compound Remaining (% of compound present at t = 0 min): 5 μM
Description: (§2) At five time points over the course of a 45 minute experiment, the compounds were analyzed by LC-MS/MS. The percentage of each compound remaining at each time point, along with the metabolic half-lives of each compound in the presence of each cytochrome P450 isoform, are indicated in Tables 10-12, below.

[3] = biological target: CYP3A4 (Homo sapiens, UniProt P08684); test: metabolism by CYP3A4 isoform; conditions: for Compound Remaining (% of compound present at t = 0 min): 5 μM
Description: as §2

[4] = biological target: CYP2C19 (Homo sapiens, UniProt P33261); test: metabolism by CYP2C19 isoform; conditions: for Compound Remaining (% of compound present at t = 0 min): 5 μM
Description: as §2

[5] = system: cytochrome P450; test: microsomal stability, pooled liver microsomes, cytochrome P450 alone; conditions: 45 minute experiment
Description: as §1

CYP2C19, sequence (P33261 whole entry, canonical isoform): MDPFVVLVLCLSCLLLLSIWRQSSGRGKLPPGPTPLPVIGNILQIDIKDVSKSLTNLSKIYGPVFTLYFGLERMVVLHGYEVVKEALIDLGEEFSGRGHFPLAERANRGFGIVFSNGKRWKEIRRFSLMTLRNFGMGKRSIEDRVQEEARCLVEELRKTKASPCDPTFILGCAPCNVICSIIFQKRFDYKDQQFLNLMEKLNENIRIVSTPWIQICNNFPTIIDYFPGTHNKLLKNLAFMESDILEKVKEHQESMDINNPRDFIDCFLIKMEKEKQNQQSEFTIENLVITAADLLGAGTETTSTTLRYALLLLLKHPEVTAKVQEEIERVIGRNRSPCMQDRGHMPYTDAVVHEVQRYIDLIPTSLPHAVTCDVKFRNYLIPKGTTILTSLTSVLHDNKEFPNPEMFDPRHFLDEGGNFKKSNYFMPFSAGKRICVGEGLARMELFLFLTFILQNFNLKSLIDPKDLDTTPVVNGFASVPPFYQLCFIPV
CYP2D6, sequence (P10635 whole entry, canonical isoform): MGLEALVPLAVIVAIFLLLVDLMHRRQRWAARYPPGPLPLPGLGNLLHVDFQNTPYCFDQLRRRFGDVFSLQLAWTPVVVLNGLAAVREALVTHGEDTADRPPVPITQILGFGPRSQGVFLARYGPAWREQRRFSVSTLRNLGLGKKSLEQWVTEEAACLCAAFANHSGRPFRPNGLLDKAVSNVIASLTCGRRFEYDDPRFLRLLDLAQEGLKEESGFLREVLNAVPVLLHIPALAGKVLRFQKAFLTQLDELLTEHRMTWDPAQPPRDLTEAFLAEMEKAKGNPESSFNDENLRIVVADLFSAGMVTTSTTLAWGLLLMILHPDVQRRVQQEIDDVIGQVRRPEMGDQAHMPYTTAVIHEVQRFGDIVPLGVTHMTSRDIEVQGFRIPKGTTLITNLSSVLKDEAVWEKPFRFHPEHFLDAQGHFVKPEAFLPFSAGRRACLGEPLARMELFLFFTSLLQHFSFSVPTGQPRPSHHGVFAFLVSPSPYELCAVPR
CYP3A4, sequence (P08684 whole entry, canonical isoform): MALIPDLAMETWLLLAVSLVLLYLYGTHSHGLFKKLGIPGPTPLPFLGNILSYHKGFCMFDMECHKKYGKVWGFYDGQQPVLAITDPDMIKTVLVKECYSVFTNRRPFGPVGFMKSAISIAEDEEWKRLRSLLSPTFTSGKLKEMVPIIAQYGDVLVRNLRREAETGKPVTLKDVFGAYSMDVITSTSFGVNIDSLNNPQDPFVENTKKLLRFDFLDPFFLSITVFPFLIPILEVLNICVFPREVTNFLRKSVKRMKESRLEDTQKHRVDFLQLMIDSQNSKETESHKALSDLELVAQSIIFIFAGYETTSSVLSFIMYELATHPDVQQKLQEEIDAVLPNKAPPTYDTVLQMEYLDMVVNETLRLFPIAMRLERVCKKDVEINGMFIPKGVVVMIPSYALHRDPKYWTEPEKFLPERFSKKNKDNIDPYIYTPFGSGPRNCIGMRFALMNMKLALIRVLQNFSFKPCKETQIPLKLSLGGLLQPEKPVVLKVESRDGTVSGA

microsomal CLint at 3 μM ([1]; read-out: CLint, Metabolic Stability - CYP/UGT): 5.38 µL/min/mg
half-life at 3 μM ([1]; read-out: t1/2, Metabolic Stability - CYP/UGT): 4.3 h
Compound Remaining (% of compound present at t = 0 min) ([2]; 0 min): 100%
Compound Remaining (% of compound present at t = 0 min) ([2]; 5 min): 49.3%
Compound Remaining (% of compound present at t = 0 min) ([2]; 15 min): 14.1%
Compound Remaining (% of compound present at t = 0 min) ([2]; 30 min): 2.43%
Compound Remaining (% of compound present at t = 0 min) ([2]; 45 min): 0.845%
half-life at 5 μM ([2]; human): 5.62 min
Compound Remaining (% of compound present at t = 0 min) ([3]; 0 min): 100%
Compound Remaining (% of compound present at t = 0 min) ([3]; 5 min): 107%
Compound Remaining (% of compound present at t = 0 min) ([3]; 15 min): 88.8%
Compound Remaining (% of compound present at t = 0 min) ([3]; 30 min): 92.5%
Compound Remaining (% of compound present at t = 0 min) ([3]; 45 min): 92.2%
half-life at 5 μM ([3]; human): 4.68 h
Compound Remaining (% of compound present at t = 0 min) ([4]; 0 min): 100%
Compound Remaining (% of compound present at t = 0 min) ([4]; 5 min): 87.6%
Compound Remaining (% of compound present at t = 0 min) ([4]; 15 min): 82.7%
Compound Remaining (% of compound present at t = 0 min) ([4]; 30 min): 57.1%
Compound Remaining (% of compound present at t = 0 min) ([4]; 45 min): 47.4%
half-life at 5 μM ([4]; human): 0.69 h
microsomal CLint at 3 μM ([5]; read-out: CLint, Metabolic Stability - CYP): 6.4 µL/min/mg
half-life at 3 μM ([5]; read-out: t1/2, Metabolic Stability - CYP): 3.6 h
SMILES: CO/N=C1\C[C@@H](CO)N(C(=O)c2ccc(-c3ccccc3C)cc2)C1 [(3E) isomer, (3E,5S)-5-(hydroxymethyl)-1-[(2′-methyl-1,1′-biphenyl-4-yl)carbonyl]pyrrolidin-3-one O-methyloxime, reference compound]
